For orientation: Ki means a measure of affinity in units of concentration, obtained from inhibition or displacement.

The target of experiment [1] is T1, human serotonin 5-HT2A receptor (Homo sapiens, UniProt P28223).
T1 construct: expressed in transfected cells; host or cells: HEK-293 EBNA cells, transient transfection; membrane preparation
The experiment can be described thus: Radioligand binding ([3H]-ketanserin) to membranes of HEK-293 EBNA cells expressing human 5-HT2A receptor. The note with it: 1.1 nM [3H]-ketanserin, HEK-293 EBNA membranes, 1 h at RT. A digest of the protocol:
(§1)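 Membranes from HEK-293 EBNA cells transiently transfected with the receptor were incubated 1 h at RT with ten test concentrations (10 μM–0.1 nM) and ~0.7 nM [3H]-spiperone (D2), 0.5 nM [3H]-spiperone (D3) or 1.1 nM [3H]-ketanserin (5-HT2A). Nonspecific binding was set with 10 μM spiperone, bound radioactivity was read by filtration and scintillation, and Ki was taken from IC50 via Cheng-Prusoff.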

Experiment [2] deals with T2, human dopamine D3 receptor (Homo sapiens, UniProt P35462).
T2 construct: expressed in transfected cells; host or cells: HEK-293 EBNA cells, transient transfection; membrane preparation
T2 sequence (P35462 whole entry): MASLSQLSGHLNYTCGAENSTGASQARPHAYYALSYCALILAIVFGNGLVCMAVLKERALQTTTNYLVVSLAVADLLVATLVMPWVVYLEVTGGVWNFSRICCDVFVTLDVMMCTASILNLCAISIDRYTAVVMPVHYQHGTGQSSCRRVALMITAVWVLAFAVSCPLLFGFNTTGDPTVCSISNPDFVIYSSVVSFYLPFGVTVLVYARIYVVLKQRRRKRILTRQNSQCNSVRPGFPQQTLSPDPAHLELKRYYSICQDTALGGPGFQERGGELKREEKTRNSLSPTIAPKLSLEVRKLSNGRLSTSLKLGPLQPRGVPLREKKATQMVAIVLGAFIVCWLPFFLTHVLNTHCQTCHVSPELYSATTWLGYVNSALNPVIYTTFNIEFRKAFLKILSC
In words: Radioligand binding ([3H]-spiperone) to membranes of HEK-293 EBNA cells expressing human D3 receptor. The note with it: human D3, 0.5 nM [3H]-spiperone, HEK-293 EBNA membranes, 1 h at RT. In outline: as §1

For experiment [3], the target named is T3, human dopamine D2 receptor (Homo sapiens, UniProt P14416).
T3 construct: expressed in transfected cells; host or cells: HEK-293 EBNA cells, transient transfection; membrane preparation
T3 sequence (P14416 whole entry): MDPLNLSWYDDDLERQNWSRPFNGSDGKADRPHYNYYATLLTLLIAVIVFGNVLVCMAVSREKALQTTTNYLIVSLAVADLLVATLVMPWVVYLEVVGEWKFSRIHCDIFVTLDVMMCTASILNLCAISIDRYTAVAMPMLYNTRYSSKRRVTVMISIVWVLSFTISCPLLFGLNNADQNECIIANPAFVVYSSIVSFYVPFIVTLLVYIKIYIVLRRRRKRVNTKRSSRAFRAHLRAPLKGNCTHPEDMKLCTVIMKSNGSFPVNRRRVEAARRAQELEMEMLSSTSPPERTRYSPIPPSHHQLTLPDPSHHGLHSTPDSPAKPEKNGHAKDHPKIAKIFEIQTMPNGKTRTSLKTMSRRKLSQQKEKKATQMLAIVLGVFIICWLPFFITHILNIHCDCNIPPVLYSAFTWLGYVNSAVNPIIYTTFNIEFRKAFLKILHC
In words: Radioligand binding ([3H]-spiperone) to membranes of HEK-293 EBNA cells expressing human D2 receptor. Particulars: human D2, 0.7 nM [3H]-spiperone, HEK-293 EBNA membranes, 1 h at RT. A digest of the protocol:
as §1

T1 sequence (P28223 whole entry): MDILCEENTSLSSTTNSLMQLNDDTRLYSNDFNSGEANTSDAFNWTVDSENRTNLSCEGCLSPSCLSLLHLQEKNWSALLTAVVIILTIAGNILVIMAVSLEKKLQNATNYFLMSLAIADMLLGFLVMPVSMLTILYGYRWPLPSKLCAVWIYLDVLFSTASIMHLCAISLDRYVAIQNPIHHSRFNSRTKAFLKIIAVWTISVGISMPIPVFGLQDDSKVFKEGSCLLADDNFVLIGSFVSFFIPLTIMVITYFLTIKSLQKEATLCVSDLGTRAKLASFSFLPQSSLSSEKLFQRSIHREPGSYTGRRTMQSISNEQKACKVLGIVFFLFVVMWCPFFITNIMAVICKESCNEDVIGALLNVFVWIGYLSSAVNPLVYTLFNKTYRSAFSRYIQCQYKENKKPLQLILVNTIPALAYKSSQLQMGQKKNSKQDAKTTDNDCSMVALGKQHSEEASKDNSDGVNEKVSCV

In the case of `CO[C@@H]1CC[C@@H](CC(=O)N[C@H]2CC[C@H](CCN3CCN(c4noc5cc(F)c(F)cc45)CC3)CC2)C1` (relative stereo) [Example 65, N-trans-(4-{2-[4-(5,6-Difluoro-benzo[d]isoxazol-3-yl)-piperazin-1-yl]-ethyl}-cyclohexyl)-2-trans-(3-methoxy-cyclopentyl)-acetamide], the Ki in experiment [1] amounted to 4.4 nM; in experiment [2], 7.67 nM; in experiment [3], 822 nM.
In the same order, the values of `CO[C@H]1CC[C@H](CC(=O)N[C@H]2CC[C@H](CCN3CCN(c4noc5ccc(F)cc45)CC3)CC2)CC1` [Example 6, N-trans-(4-{2-[4-(5-Fluoro-benzo[d]isoxazol-3-yl)-piperazin-1-yl]-ethyl}-cyclohexyl)-2-trans-(4-methoxy-cyclohexyl)-acetamide] are 26.3 nM, 6.44 nM and 11800 nM.
For `O=C(N[C@H]1CC[C@H](CCN2CCN(c3noc4cc(F)c(F)cc34)CC2)CC1)C1CCOCC1` [Example 67, Tetrahydro-pyran-4-carboxylic acid N-trans-(4-{2-[4-(5,6-difluoro-benzo[d]isoxazol-3-yl)-piperazin-1-yl]-ethyl}-cyclohexyl)-amide], in that order: 7.72 nM, 30 nM and 2670 nM.
In the same order, the values of `COCCC(=O)N[C@H]1CC[C@H](CCN2CCN(c3noc4cc(Cl)ccc34)CC2)CC1` [Example 29, N-trans-(4-{2-[4-(6-Chloro-benzo[d]isoxazol-3-yl)-piperazin-1-yl]-ethyl}-cyclohexyl)-3-methoxy-propionamide] are 8.59 nM, 8.68 nM and 490 nM.
With `O=C(CC1(O)CCOCC1)N[C@H]1CC[C@H](CCN2CCN(c3noc4cc(F)c(F)cc34)CC2)CC1` [Example 61, N-trans-(4-{2-[4-(5,6-Difluoro-benzo[d]isoxazol-3-yl)-piperazin-1-yl]-ethyl}-cyclohexyl)-2-(4-hydroxy-tetrahydro-pyran-4-yl)-acetamide], the Ki was 8.45 nM in experiment [1], 10.1 nM in experiment [2] and 811 nM in experiment [3].
As to `CO[C@H]1CC[C@H](CC(=O)N[C@H]2CC[C@H](CCN3CCN(c4noc5cc(F)c(F)cc45)CC3)CC2)CC1` [Example 58, N-trans-(4-{2-[4-(5,6-Difluoro-benzo[d]isoxazol-3-yl)-piperazin-1-yl]-ethyl}-cyclohexyl)-2-trans-(4-methoxy-cyclohexyl)-acetamide], the Ki in experiment [1] was found to be 7.59 nM; in experiment [2], 14.4 nM; in experiment [3] it was 11300 nM.
For `O=C(CC1CCOCC1)N[C@H]1CC[C@H](CCN2CCN(c3noc4cc(F)ccc34)CC2)CC1` [Example 112, N-trans-(4-{2-[4-(6-Fluoro-benzo[d]isoxazol-3-yl)-piperazin-1-yl]-ethyl}-cyclohexyl)-2-(tetrahydro-pyran-4-yl)-acetamide], in that order: 3.51 nM, 4.33 nM and 119 nM.
Take `O=C(CO)N[C@H]1CC[C@H](CCN2CCN(c3noc4cc(F)c(Cl)cc34)CC2)CC1` [Example 87, N-trans-(4-{2-[4-(5-Chloro-6-fluoro-benzo[d]isoxazol-3-yl)-piperazin-1-yl]-ethyl}-cyclohexyl)-2-hydroxy-acetamide]: the Ki in experiment [1] came out at 8.6 nM; in experiment [2], 9.97 nM; in experiment [3], 401 nM.
For `O=C(CC1CC1)N[C@H]1CC[C@H](CCN2CCN(c3noc4cc(Cl)ccc34)CC2)CC1` [Example 52, N-trans-(4-{2-[4-(6-Chloro-benzo[d]isoxazol-3-yl)-piperazin-1-yl]-ethyl}-cyclohexyl)-2-cyclopropyl-acetamide], in that order: 5.07 nM, 3.84 nM and 315 nM.
In the same order, the values of `Cc1cc2c(N3CCN(CC[C@H]4CC[C@H](NC(=O)C[C@H]5COCCO5)CC4)CC3)noc2cc1F` [Example 115, 2-(S)-[1,4]Dioxan-2-yl-N-trans-(4-{2-[4-(6-fluoro-5-methyl-benzo[d]isoxazol-3-yl)-piperazin-1-yl]-ethyl}-cyclohexyl)-acetamide] are 10 nM, 38 nM and above 9700 nM.
For `O=C(N[C@H]1CC[C@H](CCN2CCN(c3noc4cc(F)c(Cl)cc34)CC2)CC1)C1CC(Cl)C1` (stereo partly drawn) [Example 83, 3-Chloro-cyclobutanecarboxylic acid N-trans-(4-{2-[4-(5-chloro-6-fluoro-benzo[d]isoxazol-3-yl)-piperazin-1-yl]-ethyl}-cyclohexyl)-amide], the Ki in experiment [1] stood at 8.55 nM; in experiment [2], 5.85 nM; in experiment [3] it was 11100 nM.
Take `O=C(CC1CCOCC1)N[C@H]1CC[C@H](CCN2CCN(c3noc4cc(F)c(F)cc34)CC2)CC1` [Example 63, N-trans-(4-{2-[4-(5,6-Difluoro-benzo[d]isoxazol-3-yl)-piperazin-1-yl]-ethyl}-cyclohexyl)-2-(tetrahydro-pyran-4-yl)-acetamide]: the Ki in experiment [1] was 6.88 nM; in experiment [2], 7.13 nM; in experiment [3] it was 9710 nM.
For `CCC(=O)N[C@H]1CC[C@H](CCN2CCN(c3noc4cc(Cl)ccc34)CC2)CC1` [Example 41, N-trans-(4-{2-[4-(6-Chloro-benzo[d]isoxazol-3-yl)-piperazin-1-yl]-ethyl}-cyclohexyl)-propionamide], the Ki in experiment [1] was 10.9 nM; in experiment [2], 8.7 nM; in experiment [3], 675 nM.
For `CS(=O)(=O)CC(=O)N[C@H]1CC[C@H](CCN2CCN(c3noc4cc(F)c(Cl)cc34)CC2)CC1` [Example 89, N-trans-(4-{2-[4-(5-Chloro-6-fluoro-benzo[d]isoxazol-3-yl)-piperazin-1-yl]-ethyl}-cyclohexyl)-2-methanesulfonyl-acetamide], in that order: 2.89 nM, 5.72 nM and 11200 nM.
In the same order, the values of `O=C(N[C@H]1CC[C@H](CCN2CCN(c3noc4cc(Cl)c(Cl)cc34)CC2)CC1)C1CCOCC1` [Example 95, Tetrahydro-pyran-4-carboxylic acid N-trans-(4-{2-[4-(5,6-dichloro-benzo[d]isoxazol-3-yl)-piperazin-1-yl]-ethyl}-cyclohexyl)-amide] are 49.9 nM, 117 nM and 7950 nM.
For `O=C(C[C@H]1CCCCO1)N[C@H]1CC[C@H](CCN2CCN(c3noc4cc(Cl)ccc34)CC2)CC1` [Example 49, N-trans-(4-{2-[4-(6-Chloro-benzo[d]isoxazol-3-yl)-piperazin-1-yl]-ethyl}-cyclohexyl)-2-(R)-tetrahydro-pyran-2-yl-acetamide], in that order: 8.48 nM, 20.6 nM and 1020 nM.
For `O=C(N[C@H]1CC[C@H](CCN2CCN(c3noc4cc(Cl)ccc34)CC2)CC1)[C@H]1CCOC1` [Example 46, (S)-Tetrahydro-furan-3-carboxylic acid (4-{2-[4-(6-chloro-benzo[d]isoxazol-3-yl)-piperazin-1-yl]-ethyl}-cyclohexyl)-amide], the Ki in experiment [1] amounted to 10.9 nM; in experiment [2], 20.9 nM; in experiment [3], 488 nM.
As to `COCCC(=O)N[C@H]1CC[C@H](CCN2CCN(c3noc4cc(F)c(Cl)cc34)CC2)CC1` [Example 74, N-trans-(4-{2-[4-(5-Chloro-6-fluoro-benzo[d]isoxazol-3-yl)-piperazin-1-yl]-ethyl}-cyclohexyl)-3-methoxy-propionamide], the Ki was 12.2 nM in experiment [1], 10.1 nM in experiment [2] and 260 nM in experiment [3].
Take `CO[C@H]1CC[C@H](CC(=O)N[C@H]2CC[C@H](CCN3CCN(c4noc5cc(Cl)c(Cl)cc45)CC3)CC2)CC1` [Example 96, N-trans-(4-{2-[4-(5,6-Dichloro-benzo[d]isoxazol-3-yl)-piperazin-1-yl]-ethyl}-cyclohexyl)-2-trans-(4-methoxy-cyclohexyl)-acetamide]: the inhibition constant (Ki) in experiment [1] was found to be 51.4 nM; in experiment [2], 35.4 nM; in experiment [3] it was 11600 nM.
For `COC1(CC(=O)N[C@H]2CC[C@H](CCN3CCN(c4noc5cc(F)c(F)cc45)CC3)CC2)CCOCC1` [Example 62, N-trans-(4-{2-[4-(5,6-Difluoro-benzo[d]isoxazol-3-yl)-piperazin-1-yl]-ethyl}-cyclohexyl)-2-(4-methoxy-tetrahydro-pyran-4-yl)-acetamide], in that order: 9.92 nM, 13.4 nM and 352 nM.
In the same order, the values of `O=C(N[C@H]1CC[C@H](CCN2CCN(c3noc4ccc(F)cc34)CC2)CC1)C1CCOCC1` [Example 7, Tetrahydro-pyran-4-carboxylic acid-trans-(4-{2-[4-(5-fluoro-benzo[d]isoxazol-3-yl)-piperazin-1-yl]-ethyl}-cyclohexyl)-amide] are 13.8 nM, 11.6 nM and 654 nM.
For `CSCCC(=O)N[C@H]1CC[C@H](CCN2CCN(c3noc4cc(F)c(Cl)cc34)CC2)CC1` [Example 81, N-trans-(4-{2-[4-(5-Chloro-6-fluoro-benzo[d]isoxazol-3-yl)-piperazin-1-yl]-ethyl}-cyclohexyl)-3-methylsulfanyl-propionamide], in that order: 5.28 nM, 4.38 nM and 11100 nM.

The values above are taken from patent publication US7858630B2, “D3 and 5-HT2A receptor modulators” (Hoffmann-La Roche Inc., priority 2008, dated 2010).
